# Source: ChEMBL document CHEMBL4823256 (J Med Chem, 2021)
# Tests used:
# in vitro [1] = details: human, Huh-7 cells
# in vitro [2] = details: human, MT4 cells
# Human orthopneumovirus [3] = assay: microbe, parasite or virus in culture; details: human respiratory syncytial virus, A2, HEp-2, 96 h
# Hepatitis C virus = assay: microbe, parasite or virus in culture; details: subtype 1b, Huh-7, 72 h
# in vitro [4] = details: human, HEp-2 cells
# in vitro [5] = details: human, HEp-2 cells; remark: listed apart in the source
# [6] = test system: Respiratory syncytial virus; assay: microbe, parasite or virus in culture; details: human respiratory syncytial virus, Primary bronchial epithelial cell, 72 h
# in vitro [7] = details: human, Caco-2
# in vitro [8] = details: human, Caco-2; remark: listed apart in the source
# in vivo [9] = details: cynomolgus monkey, po, 20 mg/kg
# in vivo [10] = details: Sprague-Dawley, rat, po, 8 mg/kg
# in vivo [11] = details: cynomolgus monkey, iv, 10 mg/kg
# Human orthopneumovirus [12] = details: hep-2
# in vivo [13] = details: cynomolgus monkey, iv, 10 mg/kg; remark: listed apart in the source
# in vivo [14] = details: chlorocebus sabaeus, iv, 10 mg/kg
# cells [15] = details: Homo sapiens, HEp-2, 48 h
# in vivo [16] = details: chlorocebus sabaeus, iv, 10 mg/kg; remark: listed apart in the source
# in vivo [17] = details: chlorocebus sabaeus, iv, 10 mg/kg; remark: listed apart in the source
# in vivo [18] = details: chlorocebus sabaeus, iv, 10 mg/kg; remark: listed apart in the source
# in vivo [19] = details: cynomolgus monkey, iv, 10 mg/kg; remark: listed apart in the source
# clinical [20] = details: human, in vivo, iv, 75 mg
# in vivo [21] = details: cynomolgus monkey, iv, 10 mg/kg; remark: listed apart in the source
# cells [22] = details: Homo sapiens, Primary bronchial epithelial cell, 48 h
# in vivo [23] = details: cynomolgus monkey, iv, 10 mg/kg; remark: listed apart in the source
# in vivo [24] = details: chlorocebus sabaeus, iv, 10 mg/kg; remark: listed apart in the source
# [25] = test system: Respiratory syncytial virus; details: primary bronchial epithelial cell
# clinical [26] = details: human, in vivo, iv, 75 mg; remark: listed apart in the source
# in vivo [27] = details: cynomolgus monkey, iv, 20 mg/kg
# in vivo [28] = details: cynomolgus monkey, iv, 20 mg/kg; remark: listed apart in the source
# in vivo [29] = details: dog, po
smiles,measurement,setting,value
C[C@@]1(c2ccc3c(N)ncnn23)O[C@H](CO)[C@@H](O)[C@H]1O,CC50 at 72 h,in vitro [1],> 45000 nM
same,CC50 at 120 h,in vitro [2],4500 nM
same,EC50,Human orthopneumovirus [3],5500 nM
C#C[C@@]1(c2ccc3c(N)ncnn23)O[C@H](CO)[C@@H](O)[C@H]1O,EC50,Hepatitis C virus,> 89000 nM
same,CC50 at 72 h,in vitro [1],> 89000 nM
same,CC50 at 120 h,in vitro [2],> 50000 nM
same,CC50,in vitro [4],> 100000 nM
same,EC50,Human orthopneumovirus [3],34000 nM
CC(C)(C)C(=O)SCCOP(=O)(OCCSC(=O)C(C)(C)C)OC[C@H]1O[C@@](C#N)(c2ccc3c(N)ncnn23)[C@H](O)[C@@H]1O,selectivity ratio,in vitro [5],58
same,CC50,in vitro [4],8700 nM
same,EC50,Human orthopneumovirus [3],150 nM
C[C@@]1(O)[C@H](O)[C@@H](CO)O[C@@]1(C#N)c1ccc2c(N)ncnn12,EC50,Hepatitis C virus,> 89000 nM
same,CC50 at 72 h,in vitro [1],> 89000 nM
same,CC50 at 120 h,in vitro [2],> 200000 nM
same,CC50,in vitro [4],> 100000 nM
same,EC50,Human orthopneumovirus [3],> 100000 nM
CCC(CC)COC(=O)[C@H](C)N[P@@](=O)(OC[C@H]1O[C@@](C#N)(c2ccc3c(N)ncnn23)[C@H](O)[C@@H]1O)Oc1ccccc1,EC50,[6],65 nM
same,CC50,in vitro [4],26000 nM
same,EC50,Human orthopneumovirus [3],28 nM
CC(C)OC(=O)[C@H](C)NP(=O)(OC[C@H]1O[C@@](C#N)(c2ccc3c(N)ncnn23)[C@H](O)[C@@H]1O)Oc1ccccc1 (some centres not stated),selectivity ratio,in vitro [5]; Ratio CC50/EC50,> 277
same,EC50,[6],2500 nM
same,CC50,in vitro [4],> 100000 nM
same,EC50,Human orthopneumovirus [3],360 nM
C[C@H](NP(=O)(OC[C@H]1O[C@@](C#N)(c2ccc3c(N)ncnn23)[C@H](O)[C@@H]1O)Oc1ccccc1)C(=O)OC1CCC1 (some centres not stated),selectivity ratio,in vitro [5]; Ratio CC50/EC50,453
same,EC50,[6],420 nM
same,CC50,in vitro [4],34000 nM
same,EC50,Human orthopneumovirus [3],75 nM
CCOC(=O)[C@H](C)NP(=O)(N[C@@H](C)C(=O)OCC)OC[C@H]1O[C@@](C#N)(c2ccc3c(N)ncnn23)[C@H](O)[C@@H]1O,selectivity ratio,in vitro [5]; Ratio CC50/EC50,> 15
same,CC50,in vitro [4],> 100000 nM
same,EC50,Human orthopneumovirus [3],6480 nM
C[C@H](NP(=O)(OC[C@H]1O[C@@](C#N)(c2ccc3c(N)ncnn23)[C@H](O)[C@@H]1O)Oc1ccccc1)C(=O)OC1CCCC1 (some centres not stated),selectivity ratio,in vitro [5]; Ratio CC50/EC50,471
same,EC50,[6],350 nM
same,CC50,in vitro [4],> 80000 nM
same,EC50,Human orthopneumovirus [3],170 nM
Nc1ncnn2c([C@@H]3O[C@H](CO)[C@@H](O)[C@H]3O)ccc12,EC50,Hepatitis C virus,3.5 nM
same,CC50 at 120 h,in vitro [2],< 10 nM
same,CC50,in vitro [4],36 nM
same,EC50,Human orthopneumovirus [3],> 50000 nM
C[C@H](NP(=O)(OC[C@H]1O[C@@](C#N)(c2ccc3c(N)ncnn23)[C@H](O)[C@@H]1O)Oc1ccccc1)C(=O)OCC(C)(C)C (some centres not stated),selectivity ratio,in vitro [5]; Ratio CC50/EC50,220
same,EC50,[6],530 nM
same,CC50,in vitro [4],11000 nM
same,EC50,Human orthopneumovirus [3],50 nM
C#C[C@@]1(c2ccc3c(N)ncnn23)O[C@H](COP(=O)(N[C@@H](C)C(=O)OCC(CC)CC)Oc2ccccc2)[C@@H](O)[C@H]1O (some centres not stated),selectivity ratio,in vitro [5]; Ratio CC50/EC50,> 133
same,CC50,in vitro [4],> 100000 nM
same,EC50,Human orthopneumovirus [3],750 nM
C[C@H](NP(=O)(OC[C@H]1O[C@@](C#N)(c2ccc3c(N)ncnn23)[C@H](O)[C@@H]1O)Oc1ccccc1)C(=O)OC(C)(C)C (some centres not stated),selectivity ratio,in vitro [5]; Ratio CC50/EC50,> 22
same,EC50,[6],> 5000 nM
same,CC50,in vitro [4],> 100000 nM
same,EC50,Human orthopneumovirus [3],4500 nM
CCOC(=O)[C@H](C)NP(=O)(OC[C@H]1O[C@@](C#N)(c2ccc3c(N)ncnn23)[C@H](O)[C@@H]1O)Oc1ccccc1 (some centres not stated),selectivity ratio,in vitro [5]; Ratio CC50/EC50,> 243
same,EC50,[6],850 nM
same,CC50,in vitro [4],> 73000 nM
same,EC50,Human orthopneumovirus [3],300 nM
CCC(CC)OC(=O)[C@H](C)NP(=O)(OC[C@H]1O[C@@](C#N)(c2ccc3c(N)ncnn23)[C@H](O)[C@@H]1O)Oc1ccccc1 (some centres not stated),selectivity ratio,in vitro [5]; Ratio CC50/EC50,323
same,EC50,[6],> 5000 nM
same,CC50,in vitro [4],> 100000 nM
same,EC50,Human orthopneumovirus [3],310 nM
CCC(=O)OC[C@H]1O[C@@](C#N)(c2ccc3c(N)ncnn23)[C@H](OC(=O)CC)[C@@H]1OC(=O)CC,Papp A→B,in vitro [7],< 0.1 ×10⁻⁶ cm/s
same,Papp B→A,in vitro [8],0.26 ×10⁻⁶ cm/s
same,CC50,in vitro [4],> 100000 nM
same,EC50,Human orthopneumovirus [3],430 nM
C[C@H](NP(=O)(OC[C@H]1O[C@@](C#N)(c2ccc3c(N)ncnn23)[C@H](O)[C@@H]1O)Oc1ccccc1)C(=O)OC1CCCCCCC1 (some centres not stated),selectivity ratio,in vitro [5],1710
same,CC50,in vitro [4],48000 nM
same,EC50,Human orthopneumovirus [3],28 nM
CC(C)[C@H](N)C(=O)OC[C@H]1O[C@@](C#N)(c2ccc3c(N)ncnn23)[C@H](O)[C@@H]1O,Papp A→B,in vitro [7],0.55 ×10⁻⁶ cm/s
same,Papp B→A,in vitro [8],0.45 ×10⁻⁶ cm/s
same,CC50,in vitro [4],> 100000 nM
same,EC50,Human orthopneumovirus [3],1110 nM
C[C@H](NP(=O)(OC[C@H]1O[C@@](C#N)(c2ccc3c(N)ncnn23)[C@H](O)[C@@H]1O)Oc1ccccc1)C(=O)OCC1CC1 (some centres not stated),selectivity ratio,in vitro [5],1140
same,EC50,[6],620 nM
same,CC50,in vitro [4],50000 nM
same,EC50,Human orthopneumovirus [3],44 nM
C[C@H](NP(=O)(OC[C@H]1O[C@@](C#N)(c2ccc3c(N)ncnn23)[C@H](O)[C@@H]1O)Oc1ccccc1)C(=O)OCC1CCC1 (some centres not stated),selectivity ratio,in vitro [5],958
same,EC50,[6],130 nM
same,CC50,in vitro [4],23000 nM
same,EC50,Human orthopneumovirus [3],24 nM
CCC(CC)COC(=O)[C@H](C)NP(=O)(N[C@@H](C)C(=O)OCC(CC)CC)OC[C@H]1O[C@@](C#N)(c2ccc3c(N)ncnn23)[C@H](O)[C@@H]1O,selectivity ratio,in vitro [5],116
same,EC50,[6],170 nM
same,CC50,in vitro [4],36000 nM
same,EC50,Human orthopneumovirus [3],310 nM
CC(=O)OC[C@H]1O[C@@](C#N)(c2ccc3c(N)ncnn23)[C@H](OC(C)=O)[C@@H]1OC(C)=O,Papp A→B,in vitro [7],0.9 ×10⁻⁶ cm/s
same,Papp B→A,in vitro [8],1.9 ×10⁻⁶ cm/s
same,CC50,in vitro [4],> 100000 nM
same,EC50,Human orthopneumovirus [3],820 nM
CC(C)C(=O)OC[C@H]1O[C@@](C#N)(c2ccc3c(N)ncnn23)[C@H](OC(=O)C(C)C)[C@@H]1OC(=O)C(C)C,Papp B→A,in vitro [8],1.5 ×10⁻⁶ cm/s
same,bioavailability,in vivo [9],28%
same,bioavailability,in vivo [10],57%
same,CC50,in vitro [4],81000 nM
same,EC50,Human orthopneumovirus [3],260 nM
CCC(CC)COC(=O)[C@H](C)N[P@](=O)(OC[C@H]1O[C@@](C#N)(c2ccc3c(N)ncnn23)[C@H](O)[C@@H]1O)Oc1ccccc1 (stereo in doubt),clearance at 0.5 h,in vivo [11],32 mL/min/kg
same,EC50,Human orthopneumovirus [12],15 nM
same,AUC(0-inf) at 0.5 h,in vivo [13],8.8 µM·h
same,half-life at 0.5 h,in vivo [14],48 min
same,IC50,cells [15],110 nM
same,Cmax at 0.5 h,in vivo [16],12.6 µM
same,AUC(0-inf) at 0.5 h,in vivo [17],7.9 µM·h
same,Vd at 0.5 h,in vivo [18],0.94 L/kg
same,Vd at 0.5 h,in vivo [19],0.45 L/kg
same,Cmax at 0.5 h,clinical [20],5 µM
same,half-life at 0.5 h,in vivo [21],24 min
same,bioavailability,in vivo [9],< 1%
same,IC50,cells [22],140 nM
same,Cmax at 0.5 h,in vivo [23],22.7 µM
same,clearance at 0.5 h,in vivo [24],35.5 mL/min/kg
same,EC50,[25],49 nM
same,Cmax at 1 h,clinical [26],< 1 µM
CCC(CC)COC(=O)[C@H](C)N[P@](=O)(OC[C@H]1O[C@@](C#N)(c2ccc3c(N)ncnn23)[C@H](O)[C@@H]1O)Oc1ccccc1 (stereo in doubt; 18j),EC50,[6],69 nM
same,EC50,Human orthopneumovirus [3],27 nM
N#C[C@@]1(c2ccc3c(N)ncnn23)O[C@H](CO)[C@@H](O)[C@H]1O [GS-441524],Papp A→B,in vitro [7],0.17 ×10⁻⁶ cm/s
same,Cmax at 0.5 h,in vivo [27],79.2 µM
same,Papp B→A,in vitro [8],2.1 ×10⁻⁶ cm/s
same,IC50,cells [15],350 nM
same,AUC(0-inf) at 0.5 h,in vivo [28],123 µM·h
same,bioavailability,in vivo [29],89%
same,EC50,[6],1850 nM
same,bioavailability,in vivo [9],3.4%
same,IC50,cells [22],220 nM
same,bioavailability,in vivo [10],12%
same,CC50 at 72 h,in vitro [1],> 89000 nM
same,CC50 at 120 h,in vitro [2],> 50000 nM
same,CC50,in vitro [4],> 100000 nM
same,EC50,Human orthopneumovirus [3],530 nM
